Tests used:
[1] = biological target: interaction between PD-1 and PD-L1 (Homo sapiens (Human), UniProt Q9NZQ7); experiment: PD1-PDL1 HTRF binding activity test (Cisbio PD-1/PD-L1 binding assay kit); details: read-out: PD1-PDL1 HTRF Binding Activity IC50
[2] = biological target: interaction between PD-1 and PD-L1 expressed on cell surfaces (Homo sapiens (Human), UniProt Q9NZQ7); experiment: Jurkat reporter gene cellular assay (Jurkat/NF-κB-luc/PD1 cells cocultured with Raji-PD-L1 cells, OKT-3 stimulation); type: cell-based; details: NF-κB-luc reporter activation fold, 6 hrs; read-out: Cell Activity EC50
Sequence of interaction between PD-1 and PD-L1 expressed on cell surfaces (Q9NZQ7 19-290): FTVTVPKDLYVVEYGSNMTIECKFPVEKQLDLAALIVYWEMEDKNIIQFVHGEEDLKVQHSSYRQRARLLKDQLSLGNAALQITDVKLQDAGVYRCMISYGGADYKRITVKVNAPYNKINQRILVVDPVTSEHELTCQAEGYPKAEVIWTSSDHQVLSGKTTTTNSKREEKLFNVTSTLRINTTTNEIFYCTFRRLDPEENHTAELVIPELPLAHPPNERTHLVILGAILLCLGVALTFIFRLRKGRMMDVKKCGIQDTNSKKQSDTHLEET
In short: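 Jurkat cells stably expressing human PD-1 and NF-κB-luciferase were cocultured with Raji cells stably expressing human PD-L1 under OKT-3 stimulation, with compound present. Luminescence was read after 6 h.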

Sequence of interaction between PD-1 and PD-L1 (Q9NZQ7 19-238): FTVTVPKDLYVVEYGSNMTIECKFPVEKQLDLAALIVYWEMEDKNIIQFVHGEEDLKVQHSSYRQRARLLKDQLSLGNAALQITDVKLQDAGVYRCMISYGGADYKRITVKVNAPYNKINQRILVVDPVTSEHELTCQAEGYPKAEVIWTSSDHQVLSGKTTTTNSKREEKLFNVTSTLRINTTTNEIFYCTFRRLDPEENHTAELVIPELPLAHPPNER

IC50 [1] [nM]	EC50 [2] [nM]	Compound
1.51	122	Cc1c(NC(=O)c2cc(C3CC3)c(CN3CC[C@@H](O)C3)cn2)cccc1-c1cccc(NC(=O)c2cc(C3CC3)c(CN3CC[C@@H](O)C3)cn2)c1C [Example 100]
1.09	267	Cc1c(NC(=O)c2cc(C3CC3)c(CN3CC[C@H](O)C3)cn2)cccc1-c1cccc(NC(=O)c2cc(C3CC3)c(CN3CC[C@H](O)C3)cn2)c1C [Example 101, N,N′-(2,2′-dimethyl-[1,1′-biphenyl]-3,3′-diyl)bis(4-cyclopropyl-5-(((S)-3-hydroxypyrrolidin-1-yl)methyl)picolinamide)]
3.61	194	Cc1c(NC(=O)c2cc(C3CC3)c(CN3CCC(O)CC3)cn2)cccc1-c1cccc(NC(=O)c2cc(C3CC3)c(CN3CCC(O)CC3)cn2)c1C [Example 102, N,N′-(2,2′-dimethyl-[1,1′-biphenyl]-3,3′-diyl)bis(4-cyclopropyl-5-((4-hydroxypiperidin-1-yl)methyl)picolinamide)]
4.11	206	Cc1c(NC(=O)c2cc(C3CC3)c(CNC3CC(O)C3)cn2)cccc1-c1cccc(NC(=O)c2cc(C3CC3)c(CN[C@H]3C[C@@H](O)C3)cn2)c1C (some centres unmarked) [Example 103, N,N′-(2,2′-dimethyl-[1,1′-biphenyl]-3,3′-diyl)bis(4-cyclopropyl-5-((((1s,3s)-3-hydroxycyclobutyl)amino)methyl)picolinamide)]
0.27	14.1	Cc1c(NC(=O)c2cc(C3CC3)c(CN[C@H](CO)C(=O)O)cn2)cccc1-c1cccc(NC(=O)c2cc(C3CC3)c(CN[C@H](CO)C(=O)O)cn2)c1C [Example 105]
22.5	1260	CCOC(=O)[C@@H](CO)NCc1cnc(C(=O)Nc2cccc(-c3cccc(NC(=O)c4cc(C5CC5)c(CN[C@H](CO)C(=O)OCC)cn4)c3C)c2C)cc1C1CC1 [Example 106, diethyl 2,2′-((((((2,2′-dimethyl-[1,1′-biphenyl]-3,3′-diyl)bis(azanediyl))bis (carbonyl))bis(4-cyclopropylpyridine-6,3-diyl))bis(methylene))bis(azanediyl)) (2R,2′R)-bis(3-hydroxypropanoate)]
15.2	753	CCOC(=O)[C@H](CO)NCc1cnc(C(=O)Nc2cccc(-c3cccc(NC(=O)c4cc(C5CC5)c(CN[C@@H](CO)C(=O)OCC)cn4)c3C)c2C)cc1C1CC1 [Example 107, diethyl 2,2′-((((((2,2′-dimethyl-[1,1′-biphenyl]-3,3′-diyl)bis(azanediyl))bis(carbonyl))bis(4-cyclopropylpyridine-6,3-diyl))bis (methylene))bis(azanediyl))(2S,2′S)-bis (3-hydroxypropanoate)]
0.84	42.3	Cc1c(NC(=O)c2cc(C3CC3)c(CN[C@@H](CO)C(=O)O)cn2)cccc1-c1cccc(NC(=O)c2cc(C3CC3)c(CN[C@@H](CO)C(=O)O)cn2)c1C [Example 108, (2S,2′S)-2,2′-((((((2,2′-dimethyl-[1,1′-biphenyl]-3,3′-diyl)bis(azanediyl))bis(carbonyl))bis(4-cyclopropylpyridine-6,3-diyl))bis(methylene))bis(azanediyl)) bis(3-hydroxypropanoic acid)]
375	> 10000	COC(=O)[C@@H]1CCCCN1Cc1cnc(C(=O)Nc2cccc(-c3cccc(NC(=O)c4cc(C5CC5)c(CN5CCCC[C@H]5C(=O)OC)cn4)c3C)c2C)cc1C1CC1 [Example 109, dimethyl 1,1′-(((((2,2′-dimethyl-[1,1′-biphenyl]-3,3′-diyl)bis(azanediyl))bis(carbonyl))bis(4-cyclopropylpyridine-6,3-diyl))bis(methylene))(2S,2′S)-bis (piperidine-2-carboxylate)]
0.67	51	Cc1c(NC(=O)c2cc(C3CC3)c(CN3CCCC[C@H]3C(=O)O)cn2)cccc1-c1cccc(NC(=O)c2cc(C3CC3)c(CN3CCCC[C@H]3C(=O)O)cn2)c1C [Example 110, (2S,2′S)-1,1′-(((((2,2′-dimethyl-[1,1′-biphenyl]-3,3′-diyl)bis(azanediyl))bis (carbonyl))bis(4-cyclopropylpyridine-6,3-diyl))bis(methylene))bis(piperidine-2-carboxylic acid)]
79.4	5950	CCOC(=O)[C@@H](NCc1cnc(C(=O)Nc2cccc(-c3cccc(NC(=O)c4cc(C5CC5)c(CN[C@H](C(=O)OCC)[C@@H](C)O)cn4)c3C)c2C)cc1C1CC1)[C@@H](C)O [Example 111, diethyl 2,2′-((((((2,2′-dimethyl-[1,1′-biphenyl]-3,3′-diyl)bis (azanediyl))bis(carbonyl))bis (4-cyclopropylpyridine-6,3-diyl))bis(methylene))bis(azanediyl)) (2S,2′S,3R,3′R)-bis(3-hydroxybutanoate)]
1.02	34.6	Cc1c(NC(=O)c2cc(C3CC3)c(CN[C@H](C(=O)O)[C@@H](C)O)cn2)cccc1-c1cccc(NC(=O)c2cc(C3CC3)c(CN[C@H](C(=O)O)[C@@H](C)O)cn2)c1C [Example 112, (2S,2′S,3R,3′R)-2,2′-((((((2,2′-dimethyl-[1,1′-biphenyl1]-3,3′-diyl)bis(azanediyl))bis(carbonyl))bis(4-cyclopropylpyridine-6,3-diyl))bis(methylene))bis(azanediyl))bis(3-hydroxybutanoic acid)]
6.77	979	Cc1c(NC(=O)c2cc(C3CC3)c(CN[C@H]3CCOC3=O)cn2)cccc1-c1cccc(NC(=O)c2cc(C3CC3)c(CN[C@H]3CCOC3=O)cn2)c1C [Example 113]
5.2	89	Cc1c(NC(=O)c2cc(C3CC3)c(CN[C@@H](CCO)C(=O)O)cn2)cccc1-c1cccc(NC(=O)c2cc(C3CC3)c(CN[C@@H](CCO)C(=O)O)cn2)c1C [Example 114, (2S,2′S)-2,2′-((((((2,2′-dimethyl-[1,1′-biphenyl]-3,3′-diyl)bis(azanediyl))bis(carbonyl))bis (4-cyclopropylpyridine-6,3-diyl))bis (methylene))bis(azanediyl))bis(4-hydroxybutanoic acid)]
> 400	> 10000	CCOC(=O)C[C@H](NCc1cnc(C(=O)Nc2cccc(-c3cccc(NC(=O)c4cc(C5CC5)c(CN[C@@H](CC(=O)OCC)C(=O)OCC)cn4)c3C)c2C)cc1C1CC1)C(=O)OCC [Example 115, tetraethyl 2,2′-((((((2,2′-dimethyl-[1,1′-biphenyl]-3,3′-diyl)bis(azanediyl))bis(carbonyl))bis(4-cyclopropylpyridine-6,3-diyl))bis(methylene))bis(azanediyl)) (2S,2′S)-disuccinate]
0.94	1340	Cc1c(NC(=O)c2cc(C3CC3)c(CN[C@@H](CC(=O)O)C(=O)O)cn2)cccc1-c1cccc(NC(=O)c2cc(C3CC3)c(CN[C@@H](CC(=O)O)C(=O)O)cn2)c1C [Example 116, (2S,2′S)-2,2′-((((((2,2′-dimethyl-[1,1′-biphenyl]-3,3′-diyl)bis(azanediyl))bis(carbonyl))bis(4-cyclopropylpyridine-6,3-diyl))bis(methylene))bis(azanediyl))disuccinic acid]

— patent publication US11459339B2, “Biaryl derivative, preparation method thereof and pharmaceutical application thereof” (Abbisko Therapeutics Co., Ltd., priority 2018, dated 2022)
